Experimental data reported in ChEMBL document CHEMBL2046416, “An amino-indazole scaffold with spectrum selective kinase inhibition of FLT3, PDGFRα and kit” (Bioorg Med Chem Lett, 2012).

What was measured:
BaF3 [1] = assay: Antiproliferative activity against mouse BAF3 cells expressing PDGFRalpha T674M mutant gene; type: functional, cell-based
BaF3 [2] = assay: Antiproliferative activity against mouse BAF3 cells expressing Kit […] mutant gene; type: functional, cell-based
BaF3 [3] = assay: Antiproliferative activity against wild type mouse BAF3 cells; type: cell-based
MOLT-3 = assay: Antiproliferative activity against human MOLT3 cells expressing FLT3 gene; type: functional, cell-based

Measured: EC50

O=C(NCCN1CCOCC1)c1cccc(-c2ccc3c(NC(=O)C4CC4)n[nH]c3c2)c1
> 10 µM: BaF3 [1] | BaF3 [2] | BaF3 [3] | MOLT-3
